Data reported in patent US20220289657A1, “COMPOSITION FOR PREVENTING OR TREATING BACTERIAL INFECTIOUS DISEASE COMPRISING 4-GINGEROL DERIVATIVE COMPOUND AS ACTIVE INGREDIENT” (KOREA UNIVERSITY RESEARCH AND BUSINESS FOUNDATION, SEJONG …, priority 2019, published 2022).
Marks after values point to notes of the source that are not given here.

Molecular target: T1, RhlR (Pseudomonas aeruginosa, UniProt P54292)
T1 construct: expressed in transfected cells; host or cells: E. coli sdiA variant co-transformed with pJN105R and pSC11 (RhlA::lacZ)
Experiment: cell-based
Settings: footnotes not given; for Relative RhlR activity Antagonism: Table 2; for Relative RhlR activity Antagonism / remaining activity at 100 µM: 100 μM per Table 3, lower = stronger antagonism; for activity at 100 µM: read-out: Relative RhlR activity Agonism, Table 2, matches the 100 column of Table 3; for remaining activity at 100 µM: read-out: Relative RhlR activity Antagonism, Table 2
Description: Escherichia coli (E. coli) DH5a includes LuxR homolog SdiA detecting endogenous AHL synthesized by other microbial species, particularly, BHL.
For RhlR reporter strain analysis, the present invention used pJN105R (RhlR expression plasmid), anspSC11 (RhlA::lacZ fusion plasmid) and an sdiA variant co-transformed with the two plasmids. 1% of an overnight-cultured reporter strain (OD 595 nm=1.0) supplemented with 10 μg/mL gentamicin and 50 μg/mL ampicillin was cultured in a Luria-Bertani (LB) medium (Difco, Detroit, Mich., USA) with a positive control or a compound (0-1000 μM) and BHL (0-10 μM) (Sigma-Aldrich) at 37° C. for 2 hours. 0.4% arabinose (Sigma-Aldrich) was reacted with the resulting product at 37° C. for 1.5 hours. β-galactosidase activity was evaluated using a Tropix plus kit (Applied Biosystems, CA, USA), and OD 595 nm and luminescence were measured using a VICTOR x5 multimode plate reader (PerkinElmer, Waltham, Mass., USA). Relative RhlR activity was quantified by measuring luminescence at OD 595 nm. In addition, for LasR reporter strain analysis, the present invention used pJN105L (LasR expression plasmid) and pSC11 (lasI::lacZ fusion plasmid), E. coli DH5a co-transformed with the two plasmids, and OdDHL (Sigma-Aldrich).

T1 sequence (P54292 whole entry): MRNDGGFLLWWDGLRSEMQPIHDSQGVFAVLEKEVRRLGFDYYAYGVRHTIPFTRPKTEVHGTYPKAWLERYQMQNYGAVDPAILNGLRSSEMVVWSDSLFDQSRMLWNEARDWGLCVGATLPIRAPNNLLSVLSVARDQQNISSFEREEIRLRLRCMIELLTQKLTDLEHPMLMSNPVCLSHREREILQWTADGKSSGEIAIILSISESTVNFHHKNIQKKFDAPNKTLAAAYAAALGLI

## CCCC(O)CC(=O)/C=C/c1ccc(Cl)cc1 (centres unmarked) [Compound 11h, (E)-1-(4-Chlorophenyl)-5-hydroxyoct-1-en-3-one]
  Relative RhlR activity Antagonism: 64** %
  activity at 100 µM: 1%
  remaining activity at 100 µM: 64%

## CCCC(O)CC(=O)CCc1ccc(C)cc1 (centres unmarked) [Compound 12i, 5-Hydroxy-1-(p-tolyl)octan-3-one]
  activity at 100 µM: 1%
  remaining activity at 100 µM: 76%

## CCCC(O)CC(=O)/C=C/c1ccc(F)cc1 (centres unmarked) [Compound 11g, (E)-1-(4-Fluorophenyl)-5-hydroxyoct-1-en-3-one]
  Relative RhlR activity Antagonism: 33** %
  activity at 100 µM: 1%
  remaining activity at 100 µM: 33%

## CCCC(O)CC(=O)CCc1ccc(F)c(F)c1 (centres unmarked) [Compound 12o, 1-(3,4-Difluorophenyl)-5-hydroxyoctan-3-one]
  activity at 100 µM: 1%
  remaining activity at 100 µM: 49%

## CCCC(O)CC(=O)/C=C/c1cc(F)cc(OC)c1 (centres unmarked) [Compound 11r, (E)-1-(3-Fluoro-5-methoxyphenyl)-5-hydroxyoct-1-en-3-one]
  Relative RhlR activity Antagonism: 74** %
  activity at 100 µM: 3%
  remaining activity at 100 µM: 74%

## CCCC(O)CC(=O)/C=C/c1ccccc1 (centres unmarked) [Compound 11b, (E)-5-Hydroxy-1-phenyloct-1-en-3-one]
  Relative RhlR activity Antagonism: 93* %
  activity at 100 µM: 4%
  remaining activity at 100 µM: 93%

## CCCCCCCC(O)CC(=O)CCc1ccc(O)c(OC)c1 (centres unmarked) [Compound 6, 5-Hydroxy-1-(4-hydroxy-3-methoxyphenyl)dodecan-3-one]
  activity at 100 µM: 2%
  remaining activity at 100 µM: 90%

## CCCCC[C@@H](O)C#Cc1ccc(F)c(F)c1 [Compound 35b, (R)-1-(3,4-Difluorophenyl)oct-1-yn-3-ol]
  activity at 100 µM: 3%
  remaining activity at 100 µM: 72%

## CCCC(O)CC(=O)/C=C/c1ccccc1C (centres unmarked) [Compound 11i, (E)-5-Hydroxy-1-(o-tolyl)oct-1-en-3-one]
  Relative RhlR activity Antagonism: 65** %
  activity at 100 µM: 2%
  remaining activity at 100 µM: 65%

## CCCC(O)CC(=O)CCc1ccc(OC)cc1 (centres unmarked) [Compound 12f, 5-Hydroxy-1-(4-methoxyphenyl)octan-3-one]
  activity at 100 µM: 2%
  remaining activity at 100 µM: 71%

## CCCCCC(O)/C=C\c1ccc(O)c(OC)c1 (centres unmarked) [Compound 25, (Z)-4-(3-Hydroxyoct-1-en-1-yl)-2-methoxyphenol]
  Relative RhlR activity Antagonism: 79** %
  activity at 100 µM: 3%
  remaining activity at 100 µM: 79%

## CCCC(O)CC(=O)/C=C/c1ccc(OC)c(OC)c1 (centres unmarked) [Compound 11l, (E)-1-(3,4-Dimethoxyphenyl)-5-hydroxyoct-1-en-3-one]
  activity at 100 µM: 1%
  remaining activity at 100 µM: 69%

## CCCC(O)CC(=O)/C=C/c1ccc(F)c(OC)c1 (centres unmarked) [Compound 11q, (E)-1-(4-Fluoro-3-methoxyphenyl)-5-hydroxyoct-1-en-3-one]
  Relative RhlR activity Antagonism: 43** %
  activity at 100 µM: 1%
  remaining activity at 100 µM: 43%

## CCCC(O)CC(=O)CCc1ccc(Cl)cc1 (centres unmarked) [Compound 12h, 1-(4-Chlorophenyl)-5-hydroxyoctan-3-one]
  activity at 100 µM: 2%
  remaining activity at 100 µM: 69%

## CCCC(O)CC(=O)/C=C/c1ccc(O)c(OCC)c1 (centres unmarked) [Compound 11n, (E)-1-(3-Ethoxy-4-hydroxyphenyl)-5-hydroxyoct-1-en-3-one]
  activity at 100 µM: 1%
  remaining activity at 100 µM: 91%

## CCCC(O)CC(=O)CCc1ccc(O)c(OC)c1 (centres unmarked) [Compound 2, 5-Hydroxy-1-(4-hydroxy-3-methoxyphenyl)octan-3-one]
  Relative RhlR activity Antagonism: 54** %
  activity at 100 µM: 3%
  remaining activity at 100 µM: 54%

## CCCC(O)CC(=O)CCc1cc(F)cc(OC)c1 (centres unmarked) [Compound 12r, 1-(3-Fluoro-5-methoxyphenyl)-5-hydroxyoctan-3-one]
  activity at 100 µM: 3%
  remaining activity at 100 µM: 85%

## CCCCCC(O)/C=C/c1ccc(O)c(OC)c1 (centres unmarked) [Compound 15b, (E)-4-(3-Hydroxyoct-1-en-1-yl)-2-methoxyphenol]
  Relative RhlR activity Antagonism: 41** %
  activity at 100 µM: 2%
  remaining activity at 100 µM: 41%

## CCCC(O)CC(=O)/C=C/c1ccc(C)c(C)c1 (centres unmarked) [Compound 11p, (E)-1-(3,4-Dimethylphenyl)-5-hydroxyoct-1-en-3-one]
  Relative RhlR activity Antagonism: 72** %
  activity at 100 µM: 2%
  remaining activity at 100 µM: 72%

## CCCC(O)CC(=O)CCc1cccc(O)c1 (centres unmarked) [Compound 12e, 5-Hydroxy-1-(3-hydroxyphenyl)octan-3-one]
  activity at 100 µM: 2%
  remaining activity at 100 µM: 81%

## CCCCCC(=O)CCc1ccc(F)c(F)c1 [Compound 14a, 1-(3,4-Difluorophenyl)octan-3-one]
  activity at 100 µM: 4%
  remaining activity at 100 µM: 55%

## CCCC(O)CC(=O)/C=C/c1cccc(O)c1 (centres unmarked) [Compound 11e, (E)-5-Hydroxy-1-(3-hydroxyphenyl)oct-1-en-3-one]
  Relative RhlR activity Antagonism: 78** %
  activity at 100 µM: 2%
  remaining activity at 100 µM: 78%

## CCCC[C@@H](O)C#Cc1ccc(F)c(F)c1 [Compound 34b, (R)-1-(3,4-Difluorophenyl)hept-1-yn-3-ol]
  activity at 100 µM: 3%
  remaining activity at 100 µM: 67%

## CCCCC(O)C#Cc1ccc(F)c(F)c1 (racemic) [Compound 34a, 1-(3,4-Difluorophenyl)hept-1-yn-3-ol]
  activity at 100 µM: 4%
  remaining activity at 100 µM: 71%

## CCCC(O)CC(=O)CCc1ccc(F)c(OC)c1 (centres unmarked) [Compound 12q, 1-(4-Fluoro-3-methoxyphenyl)-5-hydroxyoctan-3-one]
  activity at 100 µM: 1%
  remaining activity at 100 µM: 79%

## CCCC(O)CC(=O)CCc1ccc(C)c(C)c1 (centres unmarked) [Compound 12p, 1-(3,4-Dimethylphenyl)-5-hydroxyoctan-3-one]
  activity at 100 µM: 3%
  remaining activity at 100 µM: 82%

## CCCCCC(O)CCc1ccc(O)c(OC)c1 (centres unmarked) [Compound 27]
  Relative RhlR activity Antagonism: 45** %
  activity at 100 µM: 2%
  remaining activity at 100 µM: 45%

## CCCC(O)CC(=O)CCc1cccc(OC)c1 (centres unmarked) [Compound 12c, 5-Hydroxy-1-(3-methoxyphenyl)octan-3-one]
  activity at 100 µM: 2%
  remaining activity at 100 µM: 90%
